Test results published in patent US4560748A, “Streptothricin-group compounds” (Ajinomoto Company Incorporated, priority 1982, dated 1985).
In brackets after ≈: the same amount, converted by molar mass.

Legend:
[1] = test system: LEWIS lung carcinoma; test: Effect on LEWIS lung carcinoma in BDF1 mice; assay type: in vivo, mouse; conditions: for Reduction of tumor size / I.L.S.: intraperitoneally daily for 1-10 days; for Antitumor activity: against LEWIS lung carcinoma in mouse; for I.L.S.: increase in life span; for Life prolongation effects compared with BLM: mouse suffered from LEWIS lung carcinoma
Description: LEWIS lung carcinoma (1 mm^3) was transplanted subcutaneously into BDF1 mice. After 24 hours of the transplantation, AN-201(I), (II) and BLM were intraperitoneally injected daily for 1-10 days. Antitumor activity was indicated with a reduction in tumor size or with a increase in life span.

[2] = test system: Escherichia coli K-12 ATCC 10798; test: Antimicrobial activity (MIC), broth culture; assay type: cell-based; conditions: ATCC10798, 37° C., 20 hours
Description: (§1) Two ml portions of M3 -Medium (Bactoantibiotic Medium--Difico, 1.75%, pH 7.2) were placed into test tubes and heated at 120° C. for 10 minutes. Each test strain in Table 1 was inoculated into a batch of culture medium, and the inoculated batches were cultured with shaking at 30° C. for 20 hours to obtain seed culture broths. A 0.05 ml sample of each culture broth was inoculated into 20 ml of M3 -Medium containing […] or (II). The inoculates were cultured at 37° C. for 20 hours with shaking. Thereafter, the optical density of each resultant culture broth at 660 nm was determined, and the minimum inhibition concentration (MIC) of each broth was calculated, and is shown in Table 1.

[3] = test system: Bacillus subtilis ATCC 6633; test: Antimicrobial activity (MIC), broth culture; assay type: cell-based; conditions: for MIC: ATCC6633, Bacillus subtilis ATCC 6633, 37° C., 20 hours; for Antimicrobial activity: against Bacillus subtilis ATCC 6633
Description: as §1

[4] = test system: Sarcina lutia ATCC 93412; test: Antimicrobial activity (MIC), broth culture; assay type: cell-based; conditions: for MIC: Sarcina, ATCC93412, 20 h; for Antimicrobial activity: against Sarchina lutea ATCC 9341
Description: as §1

[5] = test system: Pseudomonas aeruginosa ATCC 10145; test: Antimicrobial activity (MIC), broth culture; assay type: cell-based; conditions: ATCC10145, 37° C., 20 hours
Description: as §1

[6] = test system: Staphylococcus aureus FDA 209 P; test: Antimicrobial activity (MIC), broth culture; assay type: cell-based; conditions: for MIC: FDA209, Staphylococcus aureus FDA 209 P, 37° C., 20 hours; for Antimicrobial activity: against Streptococcus aureus FDA 209P
Description: as §1

[7] = test system: mouse leukemia L 1210 cells; test: Effect on L 1210 cell (relative multiplication number); assay type: cell-based; conditions: L1210, 120 h, 5 days, 0 μg/ml = 100; for activity at 10 µg/mL: 10 μg/ml; for activity at 20 µg/mL: 20 μg/ml; for activity at 40 µg/mL: 40 μg/ml; for activity at 50 µg/mL: 50 μg/ml; for activity at 60 µg/mL: 60 μg/ml
Description: A 10.28 g sample of RPMI 1640 powder medium (DAI-NIPPON SEIYAKU) was dissolved into 1.0 liter distilled water and 1.0 g NaHCO3 was added to it. Then the solution was filtered through a Millipore filter (pore size: 0.22μ) and supplemented with 100 ml of germ-free blood serum. One ml portions of the culture medium thus prepared were placed into Falcon Multi Well aseptically. Then a 0.05 ml culture sample of mouse leukemia L 1210 cells previously cultured was inoculated into each batch of the culture medium, and a definite amount of purified AN-201(I) or (II) dissolved in the same medium was added simultaneously to the culture medium. Thereafter, the inoculated media were incubated in a CO2 gas incubator (concentration of CO2 gas: 7.0%) at […]. After 5 days incubation, the numbers of multiplied cells were counted under a microscope and the relative multiplication numbers obtained are shown in Table 4.

[8] = test system: Escherichia coli MP-2; test: Antimicrobial activity (MIC), broth culture; assay type: cell-based; conditions: MP2, 37° C., 20 hours
Description: AN-201(I) and (II) can be assayed by determining anti-microbial activity to E. coli MP-2 (FERM-P 5432) (Agric. Biol. Chem., 43, 371, (1979)), which has permeability for high molecular compounds.
as §1

[9] = test system: mouse fibroblast cell 3T3; test: Number of injured cells, mouse fibroblast 3T3; assay type: cell-based; set-up: key: -: none of the cells injured; +: half of the cells injured; ++: about 2/3 of the cells injured; +++: almost all of the cells injured; conditions: 3 days
Description: (§2) MEM Uldecco powder (DAI-NIPPON SEIYAKU) (13.45 g) was dissolved in 1 l of distilled water and 2 ml of 7.5% NaHCO3 solution was added to the solution. Then the solution was filtered through a Millipore filter (pore size: 0.22μ) and supplemented with 100 ml of germ-free blood serum. Into a micro test plate (Falcon), 0.15 ml portions of the culture medium thus prepared were placed. Then a 0.05 ml culture sample of previously cultured mouse fibroblast cell 3T3 or mouse fibroblast cell 3T3 transformed with Semian virus-40 (SV 3T3) was inoculated into each portion of the culture medium. Thereafter, the inoculated media were incubated in a CO2 gas incubator (concentration of CO2 gas: 7.0%) at 37° C. for 24 hours. Into the media AN-201(I) or (II) was added to contain 20 μg/ml, 40 μg/ml, 50 μg/ml or 60 μg/ml, and additional cultivation was carried out for 3 days. Number of injured cell in each medium was counted with an invert microscope using a Thama hematometer.

[10] = test system: SV3T3; test: ED50 on SV-40-transformed 3T3 cells and selective cytotoxic effect; assay type: cell-based, mouse; conditions: for Cytotoxicity compared with BLM: 3T3 cell transformed with SV-40; for Selective cytotoxic effect (N/T ratio): ED50 of normal cell 3T3 to transformed cell SV3T3, 2880 min; for IC50: Mus musculus, SV3T3, 48 h, SV-40-transformed 3T3 cells, 2 days, read-out: ED50 SV3T3(T); for Antitumor activity (selective cytotoxicity): against 3T3 cell transformed with SV-40
Description: (§3) Normal cells, 3T3 and SV-40-transformed 3T3 cells, (SV3T3) were cultured in Eagle's minimal essential medium supplemented with 10% calf serum, 5 μg/ml of cefazoline and 100 μg/ml of streptomycin at the initial cell concentration of 4×10^4 cells/2 cm^2 for 3T3 and 2×10^4 cells/2 cm^2 for SV3T3 at 37° C. in 7% CO2 incubator. After one day of cultivation old medium was removed from tissue culture plate and various concentrations of drug diluted with new medium were added to the Falcon tissue culture plate. After 2 days of cultivation, the cell density was measured and the value of ED50 was determined. N/T ratio was calculated from ED50 value of normal cell, 3T3, to transformed cell, SV3T3.

[11] = ED50 on normal cells 3T3; assay type: cell-based; conditions: mouse; normal 3T3 cells; 2 days; read-out: ED50 33T3(N)
Description: as §3

[12] = test system: mouse fibroblast cell 3T3 transformed with Semian virus-40 (SV 3T3); test: Number of injured cells, SV 3T3 (transformed with Semian virus-40); assay type: cell-based; set-up: key: -: none of the cells injured; +: half of the cells injured; ++: about 2/3 of the cells injured; +++: almost all of the cells injured; conditions: 3 days
Description: as §2

[13] = test system: LEWIS lung carcinoma; conditions: reported for the known agent, cited from earlier work

Compound	Reduction of tumor size ([1]; 9 mg/kg)	Antitumor activity [1]	I.L.S. ([1]; 9 mg/kg)	Life prolongation effects compared with BLM [1]	MIC [2] [µg/mL]	MIC [3] [µg/mL]	Antimicrobial activity [3]	MIC [4] [µg/mL]	Antimicrobial activity [4]	MIC [5] [µg/mL]	MIC [6] [µg/mL]	Antimicrobial activity [6]	activity at 10 µg/mL [7] [%]	activity at 20 µg/mL [7] [%]	activity at 40 µg/mL [7] [%]	activity at 50 µg/mL [7] [%]	activity at 60 µg/mL [7] [%]	MIC [8] [µg/mL]	Number of Injured Cell ([9]; 20 μg/ml)	Number of Injured Cell ([9]; 40 μg/ml)	other results
CC(=O)NC(CCCNC(=O)CC(N)CCCNC(=O)CC(N)CCCN)CC(=O)NC1C(N=C2NC3C(=O)NCC(O)C3N2)OC(CO)C(OC(N)=O)C1O (centres unmarked) [AN-201(II)]	74-85%	positive	124-135%	greater life prolongation effects	> 50	1.5 (≈ 1.87 µM)	positive	5 (≈ 6.24 µM)	positive	> 50	2 (≈ 2.5 µM)	positive	100	80	25	0	0	4 (≈ 4.99 µM)	-	-	Reduction of tumor size ([1]; 1 mg/kg): 50-57%; Reduction of tumor size ([1]; 3 mg/kg): 54-60%; I.L.S. ([1]; 1 mg/kg): 101-110%; I.L.S. ([1]; 3 mg/kg): 121-130%; Number of Injured Cell ([9]; 50 μg/ml): +; Number of Injured Cell ([9]; 60 μg/ml): ++; Cytotoxicity compared with BLM [10]: more strongly and selectively cytotoxic; Selective cytotoxic effect (N/T ratio) [10]: 3.3; IC50 [10]: 15 µg/mL (≈ 18.7 µM); Antitumor activity (selective cytotoxicity) [10]: cytotoxic selectively; CC50 at 48 h [11]: 50 µg/mL (≈ 62.4 µM); Number of Injured Cell ([12]; 20 μg/ml): -; Number of Injured Cell ([12]; 40 μg/ml): +; Number of Injured Cell ([12]; 50 μg/ml): +++; Number of Injured Cell ([12]; 60 μg/ml): +++
bleomycin [BLM, reference compound]																					Antitumor activity (reported) ([13]; LEWIS lung carcinoma in mouse): notable antitumor activity; Chemotherapeutic coefficient (reported) [13]: very high; Reduction of tumor size ([1]; 5 mg/kg): 52-60%; Reduction of tumor size ([1]; 10 mg/kg): 65-80%; I.L.S. ([1]; 5 mg/kg): 100-110%; I.L.S. ([1]; 10 mg/kg): 119-124%
CC(=O)NC(CCCNC(=O)CC(N)CCCN)CC(=O)NC1C(N=C2NC3C(=O)NCC(O)C3N2)OC(CO)C(OC(N)=O)C1O (centres unmarked) [AN-201(I)]	45-50%	positive	114-120%	greater life prolongation effects	> 50	2.7 (≈ 4.01 µM)	positive	5 (≈ 7.43 µM)	positive	> 50	2 (≈ 2.97 µM)	positive	100	80	30	0	0	20 (≈ 29.7 µM)	-	-	Reduction of tumor size ([1]; 18 mg/kg): 50-65%; I.L.S. ([1]; 18 mg/kg): 120-125%; Number of Injured Cell ([9]; 50 μg/ml): +; Number of Injured Cell ([9]; 60 μg/ml): ++; Cytotoxicity compared with BLM [10]: more strongly and selectively cytotoxic; Selective cytotoxic effect (N/T ratio) [10]: 2.2; IC50 [10]: 25 µg/mL (≈ 37.2 µM); Antitumor activity (selective cytotoxicity) [10]: cytotoxic selectively; CC50 at 48 h [11]: 55 µg/mL (≈ 81.8 µM); Number of Injured Cell ([12]; 20 μg/ml): -; Number of Injured Cell ([12]; 40 μg/ml): +; Number of Injured Cell ([12]; 50 μg/ml): +++; Number of Injured Cell ([12]; 60 μg/ml): +++
